Changes are numbered by the printed parent chain.

Assay [1] deals with T1, E2C hDAT (C90A/C306A hDAT) (Homo sapiens, UniProt Q01959, C306A/C90A).
T1 construct: expressed in transfected cells; host or cells: HEK293 cells, transient, pcDNA3.1+
T1 sequence (Q01959 1-620 C90A/C306A): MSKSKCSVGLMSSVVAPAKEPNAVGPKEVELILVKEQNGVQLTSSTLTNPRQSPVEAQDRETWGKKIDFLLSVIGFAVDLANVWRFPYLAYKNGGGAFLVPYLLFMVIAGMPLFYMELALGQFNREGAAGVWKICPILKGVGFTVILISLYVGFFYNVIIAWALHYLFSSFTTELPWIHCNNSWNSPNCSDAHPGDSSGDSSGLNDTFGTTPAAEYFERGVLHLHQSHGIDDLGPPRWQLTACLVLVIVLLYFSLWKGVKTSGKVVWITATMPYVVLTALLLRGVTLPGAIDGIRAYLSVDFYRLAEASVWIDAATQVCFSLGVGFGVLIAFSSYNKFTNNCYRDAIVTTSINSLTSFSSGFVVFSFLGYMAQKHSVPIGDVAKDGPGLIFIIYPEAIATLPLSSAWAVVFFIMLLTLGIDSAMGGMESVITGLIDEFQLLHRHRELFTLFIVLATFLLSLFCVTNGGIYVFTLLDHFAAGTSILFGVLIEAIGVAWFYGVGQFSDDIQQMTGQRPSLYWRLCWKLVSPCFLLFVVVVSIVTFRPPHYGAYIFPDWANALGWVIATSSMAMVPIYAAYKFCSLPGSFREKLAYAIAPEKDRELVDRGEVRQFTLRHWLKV
The assay is described as follows: MTSET assay, [3H]DA uptake in HEK293 cells. The assay is classed as cell-based. The text has this:
(§1) All mutants on hDAT were generated based on the predictions made using our computational model, as described previously using site-directed mutagenesis based on the wild-type hDAT (WT hDAT) sequence (NCBI, cDNA clone MGC: 164,608 IMAGE: 40,146,999) (Quizon et al. [2016]). The combination of hDAT mutations on Asp206 and His547 (Aspartic acid 206 to leucine and histidine 547 to alanine, D206L/H547A) were predicted to eliminate two hydrogen bonds between Tat and hDAT. In addition, the combination of mutations on Tyr88, Asp206, and His547 (tyrosine88 to phenylalanine and aspartic acid 206 to leucine and histidine 547 to alanine, Y88F/D206L/H547A) were predicted to eliminate three hydrogen bonds from the Tat-hDAT complex. Two extracellular cysteine90 and cysteine306 residues on WT hDAT were mutated to alanine as E2C hDAT (C90A/C306A hDAT), rendering the E2C hDAT MTSET-insensitive background (Pedersen et al. [2014]). A triple mutation of the two cysteine90 and 306 residues to alanine and […] to cysteine on WT hDAT was generated as E2C-I159C hDAT (C90A/C306A/I159C) for MTSET-sensitive construct. A combination of C90A/C306A/H547A was generated as E2C/H547A hDAT for MTSET-insensitive control for H547A. To determine whether H547A-enhanced DA transport is mediated by changing transporter conformation, two combinations of C90A/C306A/I159C/H547A and C90A/C306A/I159A/H547A were generated as E2C-I159C/H547A and E2C-I159A/H547A for positive and negative controls for MTSET sensitive background, respectively. Synthetic cDNA encoding hDAT subcloned into pcDNA3.1+ (provided by Dr. Haley E Melikian, University of Massachusetts) was used as a template to generate mutants using site-directed mutagenesis performed by GENEWIZ (South Plainfield, NJ). DNA sequencing was also performed by GENEWIZ to confirm the sequences of the mutant constructs. Plasmid DNA were propagated and purified using the Qiagen Hi-speed maxi prep plasmid DNA isolation kit (Qiagen, Valencia, CA, USA).
(§2) This assay was performed based on the previous report with minor modifications (Loland et al. [2004], [2008]). First, we generated five WT hDAT based plasmid construct for MTSET-insensitive or sensitive background as we described above. HEK293 cells were grown in poly-d-lysine coated plates at a density of 1 × 10^5 cells/cm^2 were transfected with different E2C- associated hDAT background constructs: E2C hDAT, E2C-I159C hDAT, E2C/H547A hDAT, E2C-I159C/H547A or E2C-I159A/H547A. Twenty-four hours after the transfection, cells were washed twice with 1× KRH buffer, and preincubated with or without the presence of 10 µM nomifensine (for non-specific uptake) and MTSET for 10 min at room temperature. MTSET at 1 mM final concentration was chosen based on a pilot study on optimizing MTSET concentrations (0.1, 0.5 or 1.0 mM). […] Because MTSET is easily hydrolyzed in solution, the amount needed for a 10 × stock was weighed out and dissolved in 1 × KRH buffer just right before adding to the assigned wells, for a 10-fold dilution (final concentration of 1 mM in final volume of 250 µl). […] Cells were immediately washed twice with ice-cold 1 × KRH buffer to terminate the reaction and were lysed rapidly with the addition of 1 % SDS. Cell lysates were collected after incubation for 1 h at room temperature and radioactivity was determined the next day.

Assay [2] deals with T2, E2C-I159A/H547A (C90A/C306A/I159A/H547A) (Homo sapiens, UniProt Q01959, C306A/C90A/H547A/I159A).
T2 construct: expressed in transfected cells; host or cells: HEK293 cells, transient, pcDNA3.1+
T2 sequence (Q01959 1-620 C90A/I159A/C306A/H547A): T1 sequence (Q01959 1-620 C90A/C306A) with I159A, H547A
The assay is described as follows: MTSET assay, [3H]DA uptake in HEK293 cells. Format: cell-based. As to conditions: 1 mM MTSET.
Excerpt: as §1, §2

Where [3] appears, read: E2C, 1 mM MTSET, HEK293, Fig. 8b.

With `C[N+](C)(C)CCSS(C)(=O)=O` [MTSET, [2-(trimethylammonium)ethyl]-methanethiosulfonate], in assay [1] (setting [3]), the “[3H]DA uptake in the presence of MTSET” value came out at 86.5 ± 6.0 and the “effect of MTSET on DA uptake” value is given as “no effect”. In addition, the “effect on [3H]DA uptake” value in assay [1] (E2C-hDAT, MTSET 0.1, 0.5, 1.0 mM, pilot study Fig. 8a) is “no effect”. For the same compound, the “inhibition of DA uptake relative to E2C” value in assay [2] (Fig. 8b) was found to be 31%. For the same compound, the “[3H]DA uptake in the presence of MTSET” value in assay [2] (HEK293, Fig. 8b) was 59.7 ± 5.7.

The values above are taken from PMC8329121 (Journal of Neuroimmune Pharmacology, 2021).
